A word on the EC50: it is the concentration at which the effect is half-maximal.

In one experiment the test system is Saccharomyces cerevisiae. Description: Anti-prion activity against [URE3] protein in Saccharomyces cerevisiae SB34 at 100 uM measured after 96 hrs by fluorimetry analysis.
Experiment [1] has as its target Alpha-synuclein (Homo sapiens) (UniProt P37840). Put plainly: Binding affinity to human alpha-synuclein aggregation expressed in Escherichia coli BL21 (DE3) cells at 50 uM at 1:1 molar ratio after 3 hrs by (+) HRESIMS analysis.
The nature of experiment [2]: Anti-prion activity against [PSI+] protein in Saccharomyces cerevisiae STRg6 measured after 96 hrs by fluorimetry analysis.
The target of experiment [3] is Alpha-synuclein (Homo sapiens) (UniProt P37840). Description: Inhibition of human alpha-synuclein aggregation expressed in Escherichia coli BL21 (DE3) cells at 400 uM at 5:1 molar ratio after 72 hrs by ThT fluorescence assay relative to control. Set-up: scale not given: the % may be the effect or the level left.

SMILES strings stand for the structures. Activity calls are given as the source filed them. No cut-off for these calls is given here.

Regarding `CC(CCC[C@@H](C)[C@H]1CC[C@@H]2[C@]1(C)CC[C@@H]1[C@@]3(C)CC[C@@H](O)C[C@@H]3C[C@@H](O)[C@]12O)COS(=O)(=O)O` (some centres undefined), the result (in the experiment with Saccharomyces cerevisiae; in experiment [1]) was Active. In experiment [2], this compound had a 50% effective concentration (EC50) of 12.7 µM. For the same compound, in experiment [3], the Activity was found to be 68%. In the case of `O=C(O[C@@H]1Cc2c(O)cc(O)cc2O[C@@H]1c1cc(O)c(O)c(O)c1)c1cc(O)c(O)c(O)c1`, the Activity in experiment [3] was 96.3%. Consider `CC(/C=C/[C@@H](C)[C@H]1CC[C@@H]2[C@]1(C)CC[C@@H]1[C@@]3(C)CC[C@@H](O)C[C@@H]3C[C@@H](O)[C@]12O)C(C)COS(=O)(=O)O` (some centres undefined), for which the EC50 in experiment [2] is 9.8 µM. As for `N=C(N)N/N=C/c1c(Cl)cccc1Cl` [GUANABENZ], in the experiment with Saccharomyces cerevisiae, the result was Active. In experiment [2], this compound returned an EC50 of 26 µM. In experiment [2], `C[C@@H](C/C=C/[C@@H](C)[C@H]1CC[C@@H]2[C@]1(C)CC[C@@H]1[C@@]3(C)CC[C@@H](O)C[C@@H]3C[C@@H](O)[C@]12O)COS(=O)(=O)O` (relative stereo) had an EC50 of 13.8 µM.

These data come from ChEMBL document CHEMBL4673341, “Anti-prion and α-Synuclein Aggregation Inhibitory Sterols from the Sponge Lamellodysidea cf. chlorea” (J Nat Prod, 2020).
